In patent publication US6962920B2, “Pyrimidine derivatives and methods of making and using these derivatives” (Duquesne University of the Holy Ghost, priority 1992, dated 2005):
Read-outs that look alike come from different tables or passages of the source.

How the values were obtained:
NCI-H460 = type: cell-based; conditions: Table 29, Non-Small Cell Lung Cancer
MALME-3M = experiment: NCI in vitro anti-cancer activity, Melanoma; type: cell-based; conditions: Table 29, Melanoma
HCT-15 = experiment: NCI in vitro anti-cancer activity, Colon Cancer; type: cell-based; conditions: Table 29, Colon Cancer, HCT-15
786-0 = experiment: NCI in vitro anti-cancer activity, Renal Cancer; type: cell-based; conditions: Table 29, Renal Cancer, 786-0
OVCAR-3 = experiment: NCI in vitro anti-cancer activity, Ovarian Cancer; type: cell-based; conditions: Table 29, Ovarian Cancer, OVCAR-3
HS 578T = experiment: NCI in vitro anti-cancer activity, Breast Cancer; type: cell-based; conditions: Table 29, Breast Cancer
MDA-MB-435 = experiment: NCI in vitro anti-cancer activity, Breast Cancer; type: cell-based; conditions: Table 29, Breast Cancer
Tg DHFR = target: T1, Tg DHFR (Toxoplasma gondii, UniProt Q07422); experiment: biochemical; type: biochemical
T1 sequence (Q07422 1-610): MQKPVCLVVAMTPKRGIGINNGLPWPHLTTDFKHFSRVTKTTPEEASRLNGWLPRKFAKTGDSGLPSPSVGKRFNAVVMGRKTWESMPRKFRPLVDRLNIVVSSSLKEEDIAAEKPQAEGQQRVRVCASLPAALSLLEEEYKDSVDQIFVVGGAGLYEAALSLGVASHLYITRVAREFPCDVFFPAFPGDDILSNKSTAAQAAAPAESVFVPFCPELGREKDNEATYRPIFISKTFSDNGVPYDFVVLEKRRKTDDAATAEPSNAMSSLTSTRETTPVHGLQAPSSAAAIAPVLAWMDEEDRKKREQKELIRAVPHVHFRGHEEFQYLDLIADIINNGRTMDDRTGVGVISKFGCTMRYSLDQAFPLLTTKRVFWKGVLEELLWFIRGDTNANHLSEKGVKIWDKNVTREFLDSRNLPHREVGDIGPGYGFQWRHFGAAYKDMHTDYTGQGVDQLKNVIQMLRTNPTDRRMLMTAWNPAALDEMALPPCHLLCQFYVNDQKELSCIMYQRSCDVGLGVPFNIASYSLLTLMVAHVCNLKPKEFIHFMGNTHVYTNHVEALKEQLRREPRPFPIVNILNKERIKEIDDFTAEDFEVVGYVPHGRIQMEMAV
Protocol: The selectivity ratio is a measure of the selectivity of a compound for Pc DHFR or Tg DHFR and is expressed as the IC50 value of the DHFR from rate liver (RL) divided by the IC50 value of either the Pc DHFR or the Tg DHFR, depending on which organism the compounds are being tested against. For example, the selectivity ratio of a compound is calculated by the following formula: [formula]

NCI-H226 = type: cell-based; conditions: Table 29, Non-Small Cell Lung Cancer, NCI-H226
COLO 205 = experiment: NCI in vitro anti-cancer activity, Colon Cancer; type: cell-based; conditions: Table 29, Colon Cancer, COLO 205
NCI-H23 = type: cell-based; conditions: Table 29, Non-Small Cell Lung Cancer, NCI-H23
MDA-MB-231/ATCC = experiment: NCI in vitro anti-cancer activity, Breast Cancer; type: cell-based; conditions: Table 29, Breast Cancer
OVCAR-8 = experiment: NCI in vitro anti-cancer activity, Ovarian Cancer; type: cell-based; conditions: Table 29, Ovarian Cancer, OVCAR-8
BT-549 = experiment: NCI in vitro anti-cancer activity, Breast Cancer; type: cell-based; conditions: Table 29, Breast Cancer, BT-549
Pc DHFR = target: T2, Pc DHFR (Pneumocystis carinii, UniProt P16184); experiment: biochemical
T2 sequence (P16184 1-206): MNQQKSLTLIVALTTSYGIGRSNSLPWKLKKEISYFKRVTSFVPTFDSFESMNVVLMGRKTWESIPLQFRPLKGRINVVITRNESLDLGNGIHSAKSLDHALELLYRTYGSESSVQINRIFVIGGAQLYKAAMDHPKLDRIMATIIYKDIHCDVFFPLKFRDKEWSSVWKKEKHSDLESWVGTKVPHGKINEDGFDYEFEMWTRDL

SK-MEL-2 = experiment: NCI in vitro anti-cancer activity, Melanoma; type: cell-based; conditions: Table 29, Melanoma, SK-MEL-2
TK-10 = experiment: NCI in vitro anti-cancer activity, Renal Cancer; type: cell-based; conditions: Table 29, Renal Cancer, TK-10
UO-31 = experiment: NCI in vitro anti-cancer activity, Renal Cancer; type: cell-based; conditions: Table 29, Renal Cancer, UO-31
SNB-75 = experiment: NCI in vitro anti-cancer activity, CNS Cancer; type: cell-based; conditions: Table 29, CNS Cancer, SNB-75
IGROV1 = experiment: NCI in vitro anti-cancer activity, Ovarian Cancer; type: cell-based; conditions: Table 29, Ovarian Cancer, IGROV1
MDA-N = experiment: NCI in vitro anti-cancer activity, Breast Cancer; type: cell-based; conditions: Table 29, Breast Cancer
A498 = experiment: NCI in vitro anti-cancer activity, renal cancer
Text: The compounds identified below were further tested for their in vitro anti-cancer activity by the National Cancer Institute.

SF-268 = experiment: NCI in vitro anti-cancer activity, CNS Cancer; type: cell-based; conditions: Table 29, CNS Cancer, SF-268
SK-OV-3 = experiment: NCI in vitro anti-cancer activity, Ovarian Cancer; type: cell-based; conditions: Table 29, Ovarian Cancer, SK-OV-3
HCT-116 = experiment: NCI in vitro anti-cancer activity, Colon Cancer; type: cell-based; conditions: Table 29, Colon Cancer
CAKI-1 = experiment: NCI in vitro anti-cancer activity, Renal Cancer; type: cell-based; conditions: Table 29, Renal Cancer, CAKI-1
KM12 = experiment: NCI in vitro anti-cancer activity, Colon Cancer; type: cell-based; conditions: Table 29, Colon Cancer, KM12
RXF 393 = experiment: NCI in vitro anti-cancer activity, Renal Cancer; type: cell-based; conditions: Table 29, Renal Cancer, RXF 393
T-47D = experiment: NCI in vitro anti-cancer activity, Breast Cancer; type: cell-based; conditions: Table 29, Breast Cancer
EKVX = type: cell-based
SR = experiment: NCI in vitro anti-cancer activity, Leukemia; type: cell-based; conditions: Table 29, Leukemia

Row | Compound | GI50 (NCI-H460) [µM] | GI50 (MALME-3M) [µM] | GI50 (HCT-15) [µM] | GI50 (786-0) [µM] | GI50 (OVCAR-3) [µM] | GI50 (HS 578T) [µM] | GI50 (MDA-MB-435) [µM] | GI50 (NCI-H226) [µM] | GI50 (COLO 205) [µM] | GI50 (NCI-H23) [µM] | GI50 (MDA-MB-231/ATCC) [µM] | GI50 (OVCAR-8) [µM] | GI50 (BT-549) [µM] | GI50 (SK-MEL-2) [µM] | GI50 (TK-10) [µM] | GI50 (UO-31) [µM] | GI50 (SNB-75) [µM] | GI50 (IGROV1) [µM] | GI50 (MDA-N) [µM] | GI50 (A498; Table 29, Renal Cancer, A498) [µM] | further results
1 | COc1ccc(CCc2cn(Cc3ccccc3)c3nc(N)nc(C)c23)cc1 [Compound 113-118] | 42.5 | 19.5 | 51.4 | > 100 | > 100 | < 100 | 95.4 | > 100 | 38.2 | 97.3 | < 100 | 52.5 | 40.9 | > 100 | > 100 | > 100 | > 100 | 68.2 | 78.3 | 14.2 | % inhibition Tg DHFR (Tg DHFR; @ 31 μM): 15% @ 31 μM; % inhibition Pc DHFR (Pc DHFR; @ 31 μM): 60% @; GI50 (SF-268): > 100 µM; GI50 (SK-OV-3): > 100 µM; GI50 (HCT-116): 48.3 µM; GI50 (CAKI-1): > 100 µM; GI50 (KM12): 48.4 µM; GI50 (RXF 393): 94.7 µM
2 | COc1cc(CCc2c[nH]c3nc(N)nc(C)c23)cc(OC)c1OC [Compound 113-154A] | 19.3 | 47.4 | 24.3 | 32.8 | 74.8 | 27 | 39.2 | 23 | 48.2 | 26.9 | 37.3 | 31.1 | 19.3 | 98.3 | 58.9 | 34 | 27.5 | 17.3 | 35.3 | 0.845 | GI50 (T-47D): 60.2 µM; Selectivity Ratio: RL DHFR/Tg (Tg DHFR; Table 26): 0.23; IC50 (Tg DHFR; Table 26, read-out: Inhibitory Concentrations (IC50) Tg DHFR): 10.2 µM; Selectivity Ratio: RL DHFR/Pc DHFR (Pc DHFR; Table 26): 0.04; IC50 (Pc DHFR; Table 26, read-out: Inhibitory Concentrations (IC50) Pc DHFR): 55 µM; GI50 (A498; A498 renal cancer cell line): selective; GI50 (SF-268): 39.5 µM; GI50 (EKVX; Non-Small Cell Lung Cancer): selective; GI50 (EKVX; Table 29, Non-Small Cell Lung Cancer, read-out: GI50): 5.21 µM; GI50 (SR): 32.5 µM; GI50 (SK-OV-3): 88.8 µM; GI50 (HCT-116): 36.8 µM; GI50 (CAKI-1): 49.5 µM; GI50 (KM12): 46.5 µM; GI50 (RXF 393): 32.7 µM
